Nine molecules from PubChem BioAssay (NCI) can be followed below.

“And” between values parts separate entries of the source, which are not always exact repeats. Equal values may be shown once.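 Protocol summary: plate cells (96-well), add compound at 5 concentrations, incubate 48 h, interpolate endpoints linearly. The concentration for 50% growth inhibition is given as GI50. TGI is the concentration that stops growth completely.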

Test systems include SR leukemia; SN12C renal; COLO 205 colon; OVCAR-4 ovarian; DU-145 prostate; A549 NSCLC; SK-MEL-2 melanoma; MDA-MB-435; MCF7 breast; SF-539 CNS.
Test in all cases: inhibition of tumour cell growth, NCI panel, 48 h

Take `COc1ccc(-c2nn(-c3cccc(NC(=O)c4cccc(C(F)(F)F)c4)c3)cc2-c2ccncc2)cc1Cl`: the GI50 was 0.605 µM in the experiment with SR leukemia; 5.06 µM with SN12C renal; 1.77 µM with COLO 205 colon; 6.24 µM in the experiment on OVCAR-4 ovarian; 4.36 µM in the experiment on DU-145 prostate; 2.7 µM in the experiment on A549 NSCLC. Further, the GI50 with SK-MEL-2 melanoma is 3 µM; with MDA-MB-435, 0.343 µM; with MCF7 breast, 1.81 µM; in the experiment on SF-539 CNS, 1.77 µM. For the same molecule, the TGI with SR leukemia was 5.44 µM; with SN12C renal, above 100 µM; in the experiment on COLO 205 colon, 3.53 µM; in the experiment on OVCAR-4 ovarian it was above 100 µM; with DU-145 prostate, above 100 µM; with A549 NSCLC it was above 100 µM. Also, the TGI in the experiment with SK-MEL-2 melanoma came out at 13.2 µM; with MDA-MB-435, 2.03 µM; in the experiment on MCF7 breast, 24.8 µM; with SF-539 CNS, 6.01 µM.
For the molecule `Nc1ccc(-c2nc3ccccc3o2)cc1S`, the GI50 is 10.5 µM in the experiment on SR leukemia; 13.2 µM in the experiment on SN12C renal; 27.5 µM with COLO 205 colon; 7.58 µM with OVCAR-4 ovarian; 19.9 µM in the experiment on DU-145 prostate; 14.3 µM with A549 NSCLC. Further, the GI50 in the experiment on SK-MEL-2 melanoma was 42.4 µM; in the experiment on MDA-MB-435, 17.8 µM; with MCF7 breast, 12.1 µM; in the experiment with SF-539 CNS, 17.6 µM. For the same molecule, the TGI with SR leukemia is 64 µM; in the experiment on SN12C renal, 27.5 µM; in the experiment on COLO 205 colon, above 100 µM; with OVCAR-4 ovarian, 26 µM; with DU-145 prostate, 55.3 µM; in the experiment with A549 NSCLC, 41.5 µM. Moreover, the TGI in the experiment on SK-MEL-2 melanoma was above 100 µM; with MDA-MB-435, 36.9 µM; in the experiment with MCF7 breast it was 38.3 µM; in the experiment on SF-539 CNS, 31.4 µM.
Regarding `Cc1cc2cc3cc(C)c(N)cc3[n+](C)c2cc1N`, the GI50 in the experiment on SR leukemia was 1.99 µM; with SN12C renal, 0.334 µM; in the experiment with COLO 205 colon, 1.15 µM; in the experiment with OVCAR-4 ovarian, 1.52 µM; in the experiment with DU-145 prostate it was 1.77 µM; in the experiment on A549 NSCLC it was 1 µM. Moreover, the GI50 was 3.31 µM in the experiment on SK-MEL-2 melanoma, 2.21 µM in the experiment on MDA-MB-435, 0.476 µM in the experiment with MCF7 breast and 2.79 µM in the experiment on SF-539 CNS. Also, the TGI with SR leukemia turned out to be 8.17 µM; with SN12C renal, 10.2 µM; with COLO 205 colon, 2.87 µM; with OVCAR-4 ovarian it was 8.78 µM; in the experiment with DU-145 prostate, 9.64 µM; in the experiment on A549 NSCLC it was 10.9 µM. For the same molecule, the TGI was 8.1 µM in the experiment with SK-MEL-2 melanoma, 6.42 µM in the experiment with MDA-MB-435, 6.08 µM with MCF7 breast and 7.75 µM in the experiment with SF-539 CNS.
With `CNC(=O)NC(CCCCNC(=O)OCc1ccccc1)C(=O)OCc1ccccc1` (stereo not given), the TGI was 99.5 µM in the experiment on SR leukemia; above 84.6 µM in the experiment on SN12C renal; 34.2 µM in the experiment on COLO 205 colon; above 100 µM in the experiment with OVCAR-4 ovarian; above 100 µM in the experiment with DU-145 prostate; above 100 µM in the experiment with A549 NSCLC. For the same molecule, the TGI is 38.4 µM in the experiment on SK-MEL-2 melanoma, 39.5 µM with MDA-MB-435, above 100 µM in the experiment with MCF7 breast and 49.9 µM in the experiment on SF-539 CNS.
Regarding `CCCCCCCCCCCCCCCCCC(=O)OCC(COC1OC(CS(=O)(=O)O)C(O)C(O)C1O)OC(=O)CCCCCCCCCCCCCCCCC` (stereo not given), the TGI in the experiment with SR leukemia was 4.42 µM; in the experiment with SN12C renal, above 100 µM; in the experiment on COLO 205 colon it was above 100 µM; in the experiment on OVCAR-4 ovarian, above 100 µM; in the experiment with DU-145 prostate it was above 100 µM; with A549 NSCLC it was above 100 µM. Further, the TGI in the experiment with MDA-MB-435, with MCF7 breast and with SF-539 CNS was above 100 µM throughout.
For `CSc1nc(C)c(Br)c(=O)n1C1OC(COC(C)=O)C(OC(C)=O)C(OC(C)=O)C1OC(C)=O` (stereo not given), the TGI in the experiment on SR leukemia is above 100 µM; with SN12C renal, above 100 µM; with COLO 205 colon, above 100 µM; with OVCAR-4 ovarian, > 100 µM and 52.2 µM; in the experiment on DU-145 prostate it was above 100 µM; in the experiment with A549 NSCLC, above 100 µM. The TGI in the experiment with SK-MEL-2 melanoma is above 100 µM; in the experiment on MDA-MB-435, above 100 µM; in the experiment with MCF7 breast, above 100 µM; in the experiment on SF-539 CNS, > 80.2 µM and 34.4 µM. The GI50 in the experiment with OVCAR-4 ovarian was > 100 µM and 20.5 µM; in the experiment with A549 NSCLC it was > 100 µM and 28.5 µM; in the experiment with SF-539 CNS it was > 52.8 µM and 18.6 µM.
For H-HIIKKIRTWYRKAWHVLGKV-NH2, the GI50 in the experiment with SR leukemia is 7.13 µM; in the experiment on SN12C renal, 2.96 µM; in the experiment with COLO 205 colon, 2.11 µM; in the experiment with OVCAR-4 ovarian, 12.8 µM; in the experiment on DU-145 prostate, 4.26 µM; in the experiment with A549 NSCLC it was 5.51 µM. In addition, the GI50 in the experiment with SK-MEL-2 melanoma is 5.31 µM; in the experiment on MDA-MB-435 it was 5.15 µM; with MCF7 breast, 2.05 µM; with SF-539 CNS, 2.14 µM. In addition, the TGI is 87.8 µM in the experiment on SR leukemia; 13 µM in the experiment on SN12C renal; 4.92 µM in the experiment on COLO 205 colon; 47.5 µM in the experiment with OVCAR-4 ovarian; 15.3 µM with DU-145 prostate; above 100 µM in the experiment with A549 NSCLC. Besides, the TGI in the experiment with SK-MEL-2 melanoma amounted to 28.2 µM; with MDA-MB-435, 65.9 µM; with MCF7 breast, 4.58 µM; in the experiment with SF-539 CNS it was 5.31 µM.
For `O=C(NCCNc1nccc(-c2c(-c3ccc(F)cc3)nc3sccn23)n1)c1ccccc1`, the GI50 in the experiment with SR leukemia is 16.7 µM; in the experiment on SN12C renal, 6.52 µM; in the experiment with COLO 205 colon, 1.84 µM; in the experiment on OVCAR-4 ovarian, 15.1 µM; with DU-145 prostate it was 12.7 µM; in the experiment on A549 NSCLC it was 4.11 µM. The GI50 in the experiment on SK-MEL-2 melanoma is 8.75 µM; in the experiment on MDA-MB-435, 2.69 µM; in the experiment on MCF7 breast it was 1.43 µM; with SF-539 CNS, 12.2 µM. In addition, the TGI in the experiment on SR leukemia is 47.3 µM; in the experiment with SN12C renal it was 48.4 µM; with COLO 205 colon, 14.6 µM; in the experiment on OVCAR-4 ovarian it was 71.7 µM; in the experiment with DU-145 prostate, above 100 µM; with A549 NSCLC it was 96.7 µM. The TGI in the experiment with SK-MEL-2 melanoma was determined as 39.3 µM; with MDA-MB-435 it was 14 µM; in the experiment with MCF7 breast, 17.3 µM; in the experiment with SF-539 CNS, 29.5 µM.
In the case of `NC1=CC(=O)c2nc3ccccc3c3ccnc1c23`, the GI50 was 2.47 µM in the experiment on SR leukemia; 5.59 µM in the experiment with SN12C renal; 7.7 µM in the experiment on OVCAR-4 ovarian; 0.495 µM with DU-145 prostate; 0.132 µM in the experiment with A549 NSCLC; 9.45 µM in the experiment on SK-MEL-2 melanoma. In addition, the values for the GI50 in the experiment with MDA-MB-435, in the experiment on MCF7 breast and with SF-539 CNS were 1.22 µM, 1.29 µM and 3.99 µM, respectively. Further, the TGI in the experiment with SR leukemia was above 100 µM; with SN12C renal it was above 74.1 µM; with OVCAR-4 ovarian it was above 59 µM; with DU-145 prostate, above 44.6 µM; in the experiment with A549 NSCLC, above 21.6 µM; in the experiment with SK-MEL-2 melanoma it was 32.1 µM. The TGI in the experiment on MDA-MB-435 was 19 µM; in the experiment with MCF7 breast, above 100 µM; with SF-539 CNS it was 57.1 µM.
